Measured values published in patent US9682060B2, “Small molecules that induce intrinsic pathway apoptosis” (The Board of Trustees of the University of Illinois, priority 2015, dated 2017).
Like-named read-outs stand apart in the source and are kept apart here. Starred links: 1 amine or outer side, 2 acyl side, 3 side chain; linkers in the order of their positions; H or OH if unused. Positions of bridges follow the written chain, without caps; N, C: chain ends. Non-standard residues stand in square brackets, D forms with d. Residues, ends and D or L forms follow the SMILES beside them. Chains are numbered I, II in the order given. Actinocin(9to1) = Cc1c2oc3c(C)ccc(C(=O)[*:1])c3nc-2c(C(=O)[*:2])c(N)c1=O; NMeV = CN[C@H](C(=O)O)C(C)C; Sar = CNCC(=O)O

Legend:
U-937 cells [1] = test: Annexin V/PI cell viability analysis
[2] = test system: cancer cell lines (HL-60, SK-MEL-5, U-937); test: Initial screens against cancer cell lines; type: cell-based, Human; conditions: cancer cells treated 1 hour, extensive washing to remove compound, read at 24-hour mark
U-937 cells [3] = test: Protection assays using small molecule inhibitors (protection from Raptinal, AV/PI); type: cell-based, Human; conditions: U-937 cells pretreated 2 hours with agent (concentrations of Table 3), then 10 μM Raptinal 2 hours
Description: Protection Assays Using Small Molecule Inhibitors.
. The cells were then co-treated with Raptinal at 10 μM for 2 hours prior to analysis by propidium iodide/FITC-annexin V staining and flow cytometry.

U-937 cells [4] = type: cell-based, Human; conditions: 20 minute treatment, dihydroethidium, flow cytometry
Description: Measurement of Cellular ROS Production.
U-937 cells (1 mL of 5×10^5 cells/mL) in Hank's buffered salt solution (HBSS) containing 5 mM glucose were treated with DMSO, 2 or 10 μM Raptinal, 10 μM thapsigargin, 100 μM etoposide (1% DMSO final) and incubated in the presence of 5 μM dihydroethidium a 37° C., 5% CO2 incubator for 20 minutes. […]. The levels of ethidium were assessed by flow cytometry. Live cells were analyzed based on gating on the forward and side scatter properties and the geometric mean of ethidium staining was determined using the software FCS Express.

[5] = test system: adherent cell lines (HOS, H1993, SK-MEL-5, MIA PaCa-2); test: Adherent cell lines: cell death by AV/PI staining and immunoblots; type: cell-based, Human; conditions: adherent cell lines; 10 μM (FIG. 1G)
[6] = U-937 cells, 10 μM, time course AV/PI, based on data in FIG. 1F

Molecule	Time to 50% death (U-937 cells [1]; [6])	protection from Raptinal-induced cell death (U-937 cells [3])	further results
O=C1C(=O)N(Cc2ccc(Cl)c(Cl)c2)c2ccccc21 [AA2]	>36 h		
CC[C@@]1(O)C(=O)OCc2c1cc1n(c2=O)Cc2cc3ccccc3nc2-1 [Camptothecin]	5 h		
N.N.[Cl][Pt][Cl] [Cisplatin, reference compound]	>36 h		cell death after short treatment and washout [2]: do not have a similar effect
COc1cc2c(c(OC)c1OC)-c1ccc(OC)c(=O)cc1[C@@H](NC(C)=O)CC2 [Colchicine]			Time to 50% death (U-937 cells [1]): 15 h
O=S(=O)(O)c1cc(N=C=S)ccc1C=Cc1ccc(N=C=S)cc1S(=O)(=O)O [DIDS]		significant protection	
Cc1cc(=O)[nH]c2c1C(=O)c1c(C)cc(=O)n(C)c1C2=O [DNQ]	6 h		
COc1cccc2c1C(=O)c1c(O)c3c(c(O)c1C2=O)C[C@@](O)(C(=O)CO)C[C@@H]3O[C@H]1C[C@H](N)[C@H](O)[C@H](C)O1 [Doxorubicin]	6 h		
CN(NC(=O)CC(=O)NN(C)C(=S)c1ccccc1)C(=S)c1ccccc1 [Elesclomol]	>36 h		
COc1cc([C@@H]2c3cc4c(cc3[C@@H](O[C@@H]3O[C@@H]5CO[C@@H](C)O[C@H]5[C@H](O)[C@H]3O)[C@H]3COC(=O)[C@H]23)OCO4)cc(OC)c1O [Etoposide, reference compound]	5 h		production of reactive oxygen species (superoxide anion radicals) (U-937 cells [4]): not
N#CC(C#N)=NNc1ccc(OC(F)(F)F)cc1 [FCCP]		significant to quantitative protection	
COC1=C2C[C@@H](C)C[C@H](OC)[C@H](O)[C@@H](C)/C=C(\C)[C@H](OC(N)=O)[C@@H](OC)/C=C\C=C(/C)C(=O)NC(=CC1=O)C2=O [Geldanamycin]	>36 h		
Cc1cc2c(C(C)C)c(O)c(O)c(C=O)c2c(O)c1-c1c(C)cc2c(C(C)C)c(O)c(O)c(C=O)c2c1O [Gossypol]	36 h		
CCOC(=O)C1=C(N)Oc2ccc(Br)cc2C1C(C#N)C(=O)OCC (stereo not drawn) [HA-141]	>36 h		
CO[C@@]12[C@H](COC(N)=O)C3=C(C(=O)C(C)=C(N)C3=O)N1C[C@@H]1N[C@@H]12 [Mitomycin C]	20 h		
C=CCc1cccc(/C=N/NC(=O)CN2CCN(Cc3ccccc3)CC2)c1O [PAC-1]	>36 h		
CC(=O)O[C@H]1C(=O)[C@@]2(C)[C@H]([C@H](OC(=O)c3ccccc3)[C@]3(O)C[C@H](OC(=O)[C@H](O)[C@@H](NC(=O)c4ccccc4)c4ccccc4)C(C)=C1C3(C)C)[C@]1(OC(C)=O)CO[C@@H]1C[C@@H]2O [Paclitaxel, reference compound]	18 h		cell death after short treatment and washout [2]: do not have a similar effect

Molecule	Time to 50% death (U-937 cells [1]; [6])	protection from Raptinal-induced cell death (U-937 cells [3])	further results
CC(C)[C@H](NC(=O)c1ccc2ccccc2n1)C(=O)N[C@@H](CC(=O)O)C(=O)COc1c(F)cccc1F [Q-VD-OPh]		quantitatively blocked the loss in cell viability	
CO[C@H]1C[C@@H]2CC[C@@H](C)[C@@](O)(O2)C(=O)C(=O)N2CCCC[C@H]2C(=O)O[C@H]([C@H](C)C[C@@H]2CC[C@@H](O)[C@H](OC)C2)CC(=O)[C@H](C)/C=C(\C)[C@@H](O)[C@@H](OC)C(=O)[C@H](C)C[C@H](C)/C=C/C=C/C=C/1C [Rapamycin]	>36 h		
C=C(C)[C@H]1Cc2c(ccc3c2O[C@@H]2COc4cc(OC)c(OC)cc4[C@@H]2C3=O)O1 [Rotenone]	20 h	significant to quantitative protection	
CN[C@@H](C)C(=O)N[C@H]1CCCC[C@H]2CC[C@@H](C(=O)N[C@@H](c3ccccc3)c3cn(CCCCc4ccc(CCCCn5cc([C@@H](NC(=O)[C@@H]6CC[C@@H]7CCCC[C@H](NC(=O)[C@H](C)NC)C(=O)N76)c6ccccc6)nn5)cc4)nn3)N2C1=O [SM-164]	>36 h		
CN[C@@H]1C[C@H]2O[C@@](C)([C@@H]1OC)n1c3ccccc3c3c4c(c5c6ccccc6n2c5c31)C(=O)NC4 [Staurosporine]	5 h		time of apoptotic death (U-937 cells [1]; U-937 cells, 10 μM (FIG. 1F)): 6 to 12 h; time of apoptotic death [5]: > 24 h
c1ccc(CN(CCN(Cc2ccccn2)Cc2ccccn2)Cc2ccccn2)nc1 [TPEN]	12 h		
O=C(CC(=O)C(F)(F)F)c1cccs1 [TTFA]		did not confer significant protection	
C/C=C(/C)C(=O)O[C@H]1C(C)=C2[C@H]([C@@H]1OC(=O)CCCCCCC)[C@@](C)(OC(C)=O)C[C@H](OC(=O)CCC)[C@@]1(O)[C@H]2OC(=O)[C@@]1(C)O [Thapsigargin, reference compound]	14 h		production of reactive oxygen species (superoxide anion radicals) (U-937 cells [4]): rapid accumulation of superoxide anion radicals
CC[C@]1(O)C[C@H]2CN(CCc3c([nH]c4ccccc34)[C@@](C(=O)OC)(c3cc4c(cc3OC)N(C=O)[C@H]3[C@@](O)(C(=O)OC)[C@H](OC(C)=O)[C@]5(CC)C=CCN6CC[C@]43[C@@H]65)C2)C1 [Vincristine]	14 h		
Cc1c2oc3c(C)ccc(C(=O)N[C@@H]4C(=O)N[C@H](C(C)C)C(=O)N5CCC[C@H]5C(=O)N(C)CC(=O)N(C)[C@@H](C(C)C)C(=O)O[C@@H]4C)c3nc-2c(C(=O)N[C@@H]2C(=O)N[C@H](C(C)C)C(=O)N3CCC[C@H]3C(=O)N(C)CC(=O)N(C)[C@@H](C(C)C)C(=O)O[C@@H]2C)c(N)c1=O [actinomycin D] (I: T[dV]P[Sar][NMeV] / II: T[dV]P[Sar][NMeV]; ester I:1-I:C, II:1-II:C; linker I:N-II:N via Actinocin(9to1))		did not prevent or delay Raptinal-induced apoptosis	
COc1[nH]c(=O)c(C(=O)[C@@H](C)C[C@H](C)[C@@H](Cl)CCl)c(O)c1OC [atpenin A5]		did not confer significant protection	
C[C@@H]1C[C@@H]([C@H](O)CC2CC(=O)NC(=O)C2)C(=O)[C@@H](C)C1 [cycloheximide]		did not prevent or delay Raptinal-induced apoptosis	
CC[C@@H]1/C=C/C=C/C[C@H](C)[C@H](O)[C@](C)(O)C(=O)[C@H](C)[C@@H](O)[C@H](C)C(=O)[C@H](C)[C@@H](O)[C@H](C)/C=C/C(=O)O[C@H]2[C@@H](C)[C@@H](CC1)O[C@@]1(CC[C@@H](C)[C@@H](C[C@H](C)O)O1)[C@@H]2C [oligomycin A]		significant to quantitative protection	
Antimycin A	>36 h	significant to quantitative protection	
Tunicamycin	24 h		
